Patent US7285556B2, “Thienopyrimidine-based inhibitors of the src family” (Board of Regents, The University of Texas Systems, priority 2000, dated 2007)
Read-outs that look alike come from different tables or passages of the source.

Legend:
Csk = molecular target: T1, Csk (Homo sapiens, UniProt P41240); assay: Csk tyrosine kinase activity, poly E4Y and 32P-ATP; type: biochemical; conditions: screening assay, 50 μg/ml poly E4Y, 0.2 mM 32P-ATP
T1 construct: GST (glutathione-S-transferase) (N); made in house; host or cells: E. coli (pGEX vector)
Protocol: (§1) Recombinant human Src was expressed using the baculovirus-insect cell system and purified as published (Budde et al., 1993 and 2000). Recombinant Csk and the FGF receptor (FGFr) were expressed as glutathione-S-transferase fusion proteins using the pGEX expression vector and E. coli, and purified as described (Sun & Budde, 1995).
(§2) The tyrosine kinase activity of Src, Csk and FGFr was determined using poly E4Y and ^32P-ATP. Briefly, enzymes were assayed in a reaction mixture consisting of 0.15 M EPPS-NaOH (pH 8.0) with 6 mM MgCl2, 0.2 mM γ^32P-ATP (0.2-0.4 mCi/μmol), 10% glycerol, 0.1% Triton X-100, and poly E4Y. Poly E4Y is a synthetic peptide whose phosphorylation is measured in this assay by the addition of the radioactively labeled phosphate from the ATP (Budde et al., 1995). […] When ATP was varied (0, 50, 100 and 250 μM), poly E4Y was kept constant at 150 μg/ml.

Recombinant human Src = molecular target: T2, Recombinant human Src (Homo sapiens, UniProt P12931); assay: Src tyrosine kinase activity, poly E4Y and 32P-ATP; type: biochemical
T2 construct: made in house; host or cells: baculovirus-insect cell system
T2 sequence (P12931 whole entry): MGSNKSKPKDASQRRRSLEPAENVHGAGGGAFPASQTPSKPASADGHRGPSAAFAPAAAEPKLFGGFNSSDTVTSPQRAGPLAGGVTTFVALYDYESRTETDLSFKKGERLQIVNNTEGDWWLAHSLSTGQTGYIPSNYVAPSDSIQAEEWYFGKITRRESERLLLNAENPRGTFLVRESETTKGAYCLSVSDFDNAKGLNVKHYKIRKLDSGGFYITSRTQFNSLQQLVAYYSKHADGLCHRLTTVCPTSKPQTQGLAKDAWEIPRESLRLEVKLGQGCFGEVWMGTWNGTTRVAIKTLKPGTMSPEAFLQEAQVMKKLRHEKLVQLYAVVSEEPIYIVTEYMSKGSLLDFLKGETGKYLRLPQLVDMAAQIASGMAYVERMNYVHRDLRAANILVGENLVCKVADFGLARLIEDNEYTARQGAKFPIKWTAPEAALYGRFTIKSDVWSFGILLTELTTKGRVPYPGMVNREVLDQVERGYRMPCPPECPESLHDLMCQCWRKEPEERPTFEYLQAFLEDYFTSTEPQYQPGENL
Protocol: as §1, §2

[1] = Table 2, read-out: Src IC50 (especially good inhibitors of Src)
[2] = read-out: IC50 (preferred compounds for treatment of Src family-related disease)

| IC50 (Csk) | IC50 (Recombinant human Src; [1]) | IC50 (Recombinant human Src; [2]) | SMILES |
| --- | --- | --- | --- |
| > 149000 nM |  |  | C(=NNc1ncnc2cc(-c3ccccc3)sc12)c1cccs1 [Compound 253] |
| > 135000 nM |  |  | Clc1ccc(-c2cc3ncnc(NN=Cc4cccs4)c3s2)cc1 [Compound 310] |
| > 154000 nM |  |  | CC(=O)Nc1ccc(C=NNc2ncnc3c(C)csc23)cc1 [Compound 20, 4-Acetamidobenzaldehyde(7-methylthieno[3,2-d]pyrimidin-4-yl)hydrazone] |
| > 175000 nM |  |  | Cc1csc2c(NN=Cc3ccc(F)cc3)ncnc12 [Compound 6, 4-Fluorobenzaldehyde(7-methylthieno[3,2-d]pyrimidin-4-yl)hydrazone] |
| > 120000 nM |  |  | COc1ccc(C=NNc2ncnc3c(C)c(/C=C/c4ccccc4)sc23)cc1O [Compound 450, 3-Hydroxy-4-methoxybenzaldehyde(7-methyl-6-(trans-2-phenylvinyl)-thieno[3,2-d]pyrimidin-4-yl)hydrazone] |
| > 144000 nM |  |  | Cc1csc2c(NN=Cc3ccc(Br)cc3)ncnc12 [Compound 56] |
|  | ≤ 2000 nM | < 2000 nM | COc1ccccc1-c1sc2c(NN=Cc3cccs3)ncnc2c1C [Compound 434, 2-Thiophenecarboxaldehyde(6-(2-methoxyphenyl)-7-methylthieno[3,2-d]pyrimidin-4-yl)hydrazone] |
|  | ≤ 2000 nM | < 2000 nM | Cc1c(C(O)c2cccs2)sc2c(NN=Cc3cccs3)ncnc12 (centres unmarked) [Compound 489, 2-Thiophenecarboxaldehyde(6-(1-hydroxy-1-[2-thienyl])methyl-7-methylthieno[3,2-d]pyrimidin-4-yl)hydrazone] |
|  | ≤ 2000 nM | < 2000 nM | COc1cccc(-c2sc3c(NN=Cc4ccc(C(=O)O)cc4)ncnc3c2C)c1 [Compound 427, 4-Carboxybenzaldehyde(6-(3-methoxyphenyl)-7-methylthieno[3,2-d]pyrimidin-4-yl)hydrazone] |
|  | ≤ 2000 nM | < 2000 nM | Cc1c(C(O)c2cccnc2)sc2c(NN=Cc3cccs3)ncnc12 (centres unmarked) [Compound 485, 2-Thiophenecarboxaldehyde(6-(1-hydroxy-1-[3-pyridyl])methyl-7-methylthieno[3,2-d]pyrimidin-4-yl)hydrazone] |
|  | ≤ 2000 nM | < 2000 nM | Cc1c(C(O)c2cccnc2)sc2c(NN=Cc3ccc(C(=O)O)cc3)ncnc12 (centres unmarked) [Compound 484, 4-Carboxybenzaldehyde(6-(1-hydroxy-1-[3-pyridyl])methyl-7-methylthieno[3,2-d]pyrimidin-4-yl)hydrazone] |
|  | ≤ 2000 nM | < 2000 nM | Cc1csc2c(NN=Cc3ccc(O)c([N+](=O)[O-])c3)ncnc12 [Compound 49, 4-Hydroxy-3-nitrobenzaldehyde(7-methylthieno[3,2-d]pyrimidin-4-yl)hydrazone] |
|  | ≤ 2000 nM | < 2000 nM | CS(=O)(=O)c1ccc(-c2cc3ncnc(NN=Cc4ccc(C(=O)O)cc4)c3s2)cc1 [Compound 291, 4-Carboxybenzaldehyde(6-(4-methanesulphonylphenyl)thieno-[3,2-d]pyrimidin-4-yl)hydrazone] |
|  | ≤ 2000 nM | < 2000 nM | Cc1c(C(O)c2cccnc2)sc2c(NN=Cc3cccnc3)ncnc12 (centres unmarked) [Compound 483, 3-Pyridinecarboxaldehyde(6-(1-hydroxy-1-[3-pyridyl])methyl-7-methylthieno[3,2-d]pyrimidin-4-yl)hydrazone] |
|  | ≤ 2000 nM | < 2000 nM | Cc1c(C(O)c2ccccc2)sc2c(NN=Cc3cccs3)ncnc12 (centres unmarked) [Compound 459, 2-Thiophenecarboxaldehyde(6-(1-hydroxy-1-phenyl)methyl-7-methylthieno[3,2-d]pyrimidin-4-yl)hydrazone] |
|  | ≤ 2000 nM | < 2000 nM | Cc1c(CO)sc2c(NN=Cc3cccnc3)ncnc12 [Compound 476, 3-Pyridinecarboxaldehyde(6-hydroxymethyl-7-methylthieno[3,2-d]pyrimidin-4-yl)hydrazone] |
|  | ≤ 2000 nM | < 2000 nM | O=C(O)c1ccc(C=NNc2ncnc3cc(-c4ccc(F)cc4)sc23)cc1 [Compound 280, 4-Carboxybenzaldehyde(6-(4-fluorophenyl)thieno[3,2-d]pyrimidin-4-yl)hydrazone] |
|  | ≤ 2000 nM | < 2000 nM | Cc1c(C(O)c2ccsc2)sc2c(NN=Cc3cccs3)ncnc12 (centres unmarked) [Compound 463, 2-Thiophenecarboxaldehyde(6-(1-hydroxy-1-[3-thienyl])methyl-7-methylthieno[3,2-d]pyrimidin-4-yl)hydrazone] |

| IC50 (Csk) | IC50 (Recombinant human Src; [1]) | IC50 (Recombinant human Src; [2]) | SMILES |
| --- | --- | --- | --- |
|  | ≤ 2000 nM | < 2000 nM | Cc1csc2c(NN=Cc3ccc(O)c(O)c3)ncnc12 [Compound 23, 3,4-Dihydroxybenzaldehyde(7-methylthieno[3,2-d]pyrimidin-4-yl)hydrazone] |
|  | ≤ 2000 nM | < 2000 nM | Cc1c(-c2ccsc2)sc2c(NN=Cc3ccc(C(=O)O)cc3)ncnc12 [Compound 380, 4-Carboxybenzaldehyde(7-methyl-6-(3-thienyl)thieno[3,2-d]pyrimidin-4-yl)hydrazone] |
|  | ≤ 2000 nM | < 2000 nM | Cc1csc2c(NN=Cc3ccc(O)c(Cl)c3)ncnc12 [Compound 55, 3-Chloro-4-hydroxybenzaldehyde(7-methylthieno[3,2-d]pyrimidin-4-yl)hydrazone] |
|  | ≤ 2000 nM | < 2000 nM | COc1ccc(-c2sc3c(NN=Cc4ccc(C(=O)O)cc4)ncnc3c2C)cc1 [Compound 423, 4-Carboxybenzaldehyde(6-(4-methoxyphenyl)-7-methylthieno[3,2-d]pyrimidin-4-yl)hydrazone] |
|  | ≤ 2000 nM | < 2000 nM | COc1ccc(C=NNc2ncnc3c(C)c(-c4cccc(CO)c4)sc23)cc1O [Compound 443, 3-Hydroxy-4-methoxybenzaldehyde(6-(3-hydroxymethylphenyl)-7-methylthieno[3,2-d]pyrimidin-4-yl)hydrazone] |
|  | ≤ 2000 nM | < 2000 nM | COc1ccccc1-c1sc2c(NN=Cc3ccc(C(=O)O)cc3)ncnc2c1C [Compound 433, 4-Carboxybenzaldehyde(6-(2-methoxyphenyl)-7-methylthieno[3,2-d]pyrimidin-4-yl)hydrazone] |
|  |  | < 2000 nM | Cc1c(C(O)c2cccs2)sc2c(NN=Cc3cccnc3)ncnc12 (centres unmarked) [Compound 487, 3-Pyridinecarboxaldehyde(6-(1-hydroxy-1-[2-thienyl])methyl-7-methylthieno[3,2-d]pyrimidin-4-yl)hydrazone] |
|  | ≤ 2000 nM | < 2000 nM | Cc1c(C(O)c2ccccc2)sc2c(NN=Cc3cccnc3)ncnc12 (centres unmarked) [Compound 457, 3-Pyridinecarboxaldehyde(6-(1-hydroxy-1-phenyl)methyl-7-methylthieno[3,2-d]pyrimidin-4-yl)hydrazone] |
|  | ≤ 2000 nM | < 2000 nM | Cc1[nH]cnc1C=NNc1ncnc2c(C)csc12 [Compound 100, 5-Methyl-1H-imidazole-4-carboxaldehyde(7-methylthieno[3,2-d]pyrimidin-4-yl)hydrazone] |
|  | ≤ 2000 nM | < 2000 nM | COc1ccc(C=NNc2ncnc3cc(-c4ccccc4Cl)sc23)cc1O [Compound 321, 3-Hydroxy-4-methoxybenzaldehyde(6-(2-chlorophenyl)thieno[3,2-d]pyrimidin-4-yl)hydrazone] |
|  | ≤ 2000 nM | < 2000 nM | Cc1csc2c(NN=CC3CC3)ncnc12 [Compound 178, Cyclopropanecarboxaldehyde(7-methylthieno[3,2-d]pyrimidin-4-yl)hydrazone] |
|  | ≤ 2000 nM | < 2000 nM | O=C(O)c1ccc(C=NNc2ncnc3cc(-c4cccc(Cl)c4)sc23)cc1 [Compound 305, 4-Carboxybenzaldehyde(6-(3-chlorophenyl)thieno[3,2-d]pyrimidin-4-yl)hydrazone] |
|  | ≤ 2000 nM | < 2000 nM | Cc1c(-c2cccc(CO)c2)sc2c(NN=Cc3cccnc3)ncnc12 [Compound 440, 3-Pyridinecarboxaldehyde(6-(3-hydroxymethylphenyl)-7-methylthieno[3,2-d]pyrimidin-4-yl)hydrazone] |
|  | ≤ 2000 nM | < 2000 nM | COc1ccc(C=NNc2ncnc3c(C)c(C(O)c4ccsc4)sc23)cc1O (centres unmarked) [Compound 464, 3-Hydroxy-4-methoxybenzaldehyde(6-(1-hydroxy-1-[3-thienyl])methyl-7-methylthieno[3,2-d]pyrimidin-4-yl)hydrazone] |
|  | ≤ 2000 nM | < 2000 nM | O=C(O)c1ccc(C=NNc2ncnc3cc(I)sc23)cc1 [Compound 395, 4-Carboxybenzaldehyde(6-iodothieno[3,2-d]pyrimidin-4-yl)hydrazone] |
|  | ≤ 2000 nM | < 2000 nM | COc1ccc(C=NNc2ncnc3c(C)c(C(O)c4cccs4)sc23)cc1O (centres unmarked) [Compound 490, 3-Hydroxy-4-methoxybenzaldehyde(6-(1-hydroxy-1-[2-thienyl])methyl-7-methylthieno[3,2-d]pyrimidin-4-yl)hydrazone] |
|  | ≤ 2000 nM | < 2000 nM | Cc1c(C(O)c2ccsc2)sc2c(NN=Cc3ccc(C(=O)O)cc3)ncnc12 (centres unmarked) [Compound 462, 4-Carboxybenzaldehyde(6-(1-hydroxy-1-[3-thienyl])methyl-7-methylthieno[3,2-d]pyrimidin-4-yl)hydrazone] |
|  | ≤ 2000 nM | < 2000 nM | Cc1c(I)sc2c(NN=Cc3ccc(C(=O)O)cc3)ncnc12 [Compound 373, 4-Carboxybenzaldehyde(6-iodo-7-methylthieno[3,2-d]pyrimidin-4-yl)hydrazone] |
